According to patent EP1488698A1, “Compositions for descreasing intracellular inositol trisphosphate concentration and uses thereof” (priority 1995, dated 1997):
Marks after values point to notes of the source that are not given here.

Tests used:
[1] = system: primary chick cortical neurons; experiment: Phosphoinositide hydrolysis assay (InsP3 production) in cultured primary cortical neurons; type: cell-based; settings: for fold induction at 100 µM: Gallus gallus, Cortical neurone, 20 min, read-out: Ins-P-n
Experimental: The neurons were seeded in 24-well plastic tissue culture plates that had been coated with L-polylysine.
Receptor-stimulated and basal unstimulated hydrolysis of phosphoinositides was measured by the following procedure. […] The cells were then washed twice with 1 ml Dulbecco's phosphate-buffered saline (PBS) and 0.5 ml of PBS containing 4.5 g/L glucose was added. Sphingosine, psychosine, lysosulphatide, or lysosphingomyelin, prepared as the hydrochloride salt dissolved in water, were then added to produce the desired extracellular concentration in specific wells, […] The cells were then washed twice with 1 ml PBS, and pre-incubated for 15 minutes at 37°C with 0.5 ml PBS containing 10 mM LiCl and the compound to be tested was added. […] The tubes were vortexed thoroughly, then centrifuged at 500 x g for 5 minutes to separate the aqueous and chloroform phases. For each sample, a 1.5-ml aliquot of the upper (aqueous) phase was applied to a small column containing BioRad AG1X8 resin (formate form). Free [^3H]inositol and [^3H]glycerophosphoinositol were washed through the column with 5 ml of a solution containing 5 mM sodium borate and 60 mM sodium formate. The total phosphorylated [^3H] inositol fraction was eluted from the column for radiometric scintillation spectrometry analysis with 3 ml 1.0 M ammonium formate/0.1 M formic acid.
In addition, a 0.5 ml aliquot of the lower (chloroform) phase of each sample was analyzed radiometrically by scintillation spectrometry in order to determine the quantity of lipid-bound [^3H]myo-inositol. Estimation of phosphoinositide hydrolysis by phospholipase C is based upon the quantity of [^3H]inositol phosphates produced, and is expressed as the percentage of the latter relative to total free and componential [^3H]inositol (dpm ammonium formate + dpm chloroform fractions).

cultured neurons = experiment: Lysosphingolipid content of cultured neurons by NBDZF fluorescence tagging; type: cell-based, chick
Excerpt: Agonist-binding to metabotropic receptors influences the levels of lysosphingolipid in neuronal membranes. However, there is no convenient methodology available for the measurement of lysosphingolipid content in cultured neurons. As a result, a sensitive method of fluorometric tracing has been devised and is described herein. The measurement of lysosphingolipid content in cultured neurons is based on the stable fluorescence-tagging procedure using 4-fluoro, 7-nitrobenzofuran (NBDZF) described by Nozowa et al J. Neutochem. 59:607-609, 1992). The procedure was applied to: resting neurons; neurons exposed to 100 µM metabotropic receptor agonist for 1 hour; resting neurons exogenously enriched in lysosphingolipids; and neurons exogenously enriched in lysosphingolipids and exposed to metabotropic receptor agonist for 1 hour. The neurons were scraped in batches of 10^7 (1 Petri dish, approximately 8 cm in diameter, is equivalent to 2 mg membrane protein) and subjected to anaylsis.
Total lipids were removed from the neuron samples by repeated extraction with chloroform:methanol (2:1, vol:vol). The lysosphingolipids were separated from total neuronal lipid in 90 ± 5 % recovery yield (n = 10) by the stepped chromatographic procedure of Van Veldhoven et al. (Anal. Biochem. 183:177-189, 1989). The recovered lysosphingolipids were stably tagged with NBDZF by the rapid procedure of Nozowa et al. (supra). The fluorescence tagged neuronal lysosphingolipids were separated in parallel with reference standards NBDZF-Sph, NBDZF-Psy, and NBDZF-Lsm on high performance silica gel thin layer chromatography plates with acetonitrile:H2O (10:0.5, vol:vol). The highly fluorescent, well separated bands were scraped from the plate. The fluorescence tagged lysosphingolipids are eluted from the scraped silica gel with methanol:1 N HCl (1:0.02, vol:vol). The fluorescence tagged lysosphingolipid eluates were quantitated against reference standards by fluorescence measurement in a Perkin-Elmer LS-5 Fluorescence Spectrometer.
Sphingolipid content of neurons exposed to sphingosine, lysocerebroside, and lysosphingomyelin was examined as follows. A Petri dish containing approximately 10^7 neurons was incubated with 5 µCi [^3H]myo-Ins in 3 ml DMEM overnight to prelabel the phosphoinositide InsP3 may contain. The neurons were washed with PBS and 3 ml of PBS containing 4.5 g/l glucose was added. Preparations of sphingosine, lysocerebroside, lysosphingomyelin (Sigma Chemical Co., St. Louis, MO) and combinations of each were prepared as the hydrochloride salt dissolved in PBS. The lysosphingolipids were added to the Petri dishes to produce a concentration ranging from 0 - 150 µM. The dishes were held at room temperature for 0.5, 1, or 2 hours, then washed with PBS and incubated with 5 Units of trypsin in glucose/PBS for […] at 37°C. Trypsinization removes non-specifically bound lysosphingolipids that may adhere to extracellular plasma membrane protein domains. Non-specific adherence between cationic micelles of lysosphingolipids and the neuronal glycocalyx is avoided by performing the experiments with lysosphingolipid concentrations below the critical micelle concentration. Neurons were analyzed for lysosphingolipid content as described above.

cortical neurons = experiment: Calcium ion signalling (fura 2) in intact cortical neurons; type: cell-based, chick
Experimental: Metabotropic receptor function was examined in intact neurons by assaying lysosphingolipid modulation of calcium ion signalling. Approximately 1 X 10^6 cortical neurons were cultured on rectangular L-polylysine-coated coverslips and loaded with lysocerebroside or lysosphingomyelin to a level of 150 ± 20 pmoles per mg protein. The neurons were returned to complete Ham's high glucose medium/DMEM (1:1, vol:vol) and infiltrated with 5 µM fura 2/AM (Molecular Probes, Eugene, OR). Fura 2 is a calcium chelator whose fluorescence absorbance shifts to shorter wavelength upon calcium ion binding is measurable in intact cells. A change in intraneuronal calcium ion concentration was monitored as a change in the fluorescence spectrum.
The neurons were exposed to 10 µM glutamate agonist (for example, ibotenate) for 30 minutes at 37°C. The coverslips were then transferred to quartz cuvettes in medium containing 250 µM sulfinpyrazone to prevent fura 2/AM diffusion. Fluorescence ratios were recorded in a Perkin-Elmer LS-5 Fluorescence Spectrometer thermostatted at 37°C at excitation wavelengths of 340 and 380 nm, and emission measurement at 500 nm. Calcium ion signalling in agonist-stimulated neurons was 3.0 ± 0.2 arbitrary units for ibotenate-exposed neurons.

NC(C(=O)O)c1cc(O)no1 (stereo not drawn) [Ibotenate, ibotenate, reference compound]
Ins-P-n [1]: 3.00 ± 0.10^f | lysocerebroside content of neurons (cultured neurons): 80 ± 5 | lysosphingomyelin content of neurons (cultured neurons): 52 ± 2 | sphingosine content of neurons (cultured neurons): 85 ± 3 | Calcium ion signalling (cortical neurons): 3.0 ± 0.2 arbitrary units

N[C@@H](CCC(=O)O)C(=O)O [Glutamate, glutamate, reference compound]
fold induction at 100 µM [1]: 3.3 ± 0.05

Lysosulphatide [reference compound]
inhibitory effect on InsP3 signalling ([1]; chick cortical neurons): without inhibitory effect

CN[C@@H]1C[C@H]2O[C@@](C)([C@@H]1OC)n1c3ccccc3c3c4c(c5c6ccccc6n2c5c31)C(=O)NC4 [staurosporine, reference compound]
influence on the effects of sphingosine, lysocerebroside, or lysosphingomyelin on InsP3 production ([1]; brain neurons responsive to excitatory amino acids, protein kinase C inhibitor): does not influence

N[C@@H](CC(=O)O)C(=O)O [Aspartate, aspartate, reference compound]
fold induction at 100 µM [1]: 2.7 ± 0.06
